Measured values published in PubChem BioAssay (NCI).
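Method: 48-hour compound exposure of cells in 96-well plates, five concentrations, linear interpolation of endpoints. TGI: total growth inhibition.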

Experiments:
Assay in all cases: DTP human tumour cell line panel, 48 h
[1] = test system: SF-539 CNS
[2] = test system: OVCAR-3 ovarian
[3] = test system: RPMI-8226 leukemia
[4] = test system: HS 578T breast
[5] = test system: SK-OV-3 ovarian
[6] = test system: COLO 205 colon
[7] = test system: UO-31 renal
[8] = test system: U251 CNS
[9] = test system: OVCAR-8 ovarian
[10] = test system: UACC-257 melanoma
[11] = test system: K-562 leukemia
[12] = test system: KM12 colon
[13] = test system: T-47D breast
[14] = test system: M14 melanoma
[15] = test system: MDA-MB-231 breast
[16] = test system: NCI-H23 lung
[17] = test system: 786-0 renal
[18] = test system: MCF7 breast
[19] = test system: SK-MEL-2 melanoma

SMILES | TGI [1] [µM] | TGI [2] [µM] | TGI [3] [µM] | TGI [4] [µM] | TGI [5] [µM] | TGI [6] [µM] | TGI [7] [µM] | TGI [8] [µM] | TGI [9] [µM] | TGI [10] [µM] | TGI [11] [µM] | TGI [12] [µM] | TGI [13] [µM] | TGI [14] [µM] | TGI [15] [µM] | TGI [16] [µM] | TGI [17] [µM] | TGI [18] [µM] | TGI [19] [µM]
O=C1C(=Cc2cccc(O)c2)N=C(c2ccccc2)N1n1c(-c2ccccc2)nc2ccccc2c1=O | 51.3 | 70.1 | 50.2 | 76.8 | > 100 | 79.7 | 61.1 | > 100 | 98.5 | 81.9 | > 100 | 56.4 | 91.7 | > 100 | > 100 | 88.5 | > 100 |  | 
O=c1c2cc([N+](=O)[O-])ccc2n2n1CCCC2 | > 100 | > 100 | > 100 | > 100 | > 100 | > 100 | > 100 | > 100 | > 100 | > 100 | > 100 | > 100 | > 100 | > 100 | > 100 | > 100 | > 100 |  | 
COc1cc(N(Cc2ccc3nc(OC)c(OC)nc3c2)Cc2ccc3nc(OC)c(OC)nc3c2)cc(OC)c1OC | > 50 | > 50 | > 50 | 27.2 | > 50 | > 50 | > 50 | > 50 | > 50 | > 50 |  | > 50 | > 50 | > 50 |  | > 50 | > 50 | > 50 | > 50
O=c1[nH]cnc2c1ncn2[C@@H]1C[C@H]1CO | > 100 |  | > 100 | > 100 |  | > 100 | > 100 | > 100 | > 100 | > 100 | > 100 | > 100 | > 100 | > 100 | > 100 | > 100 | > 100 | > 100 | > 100
CN(C)Cc1cc(C=O)cc(CN(C)C)c1O | > 100 | > 100 | > 100 | > 100 |  | > 100 | > 100 | > 100 | > 100 | > 100 | > 100 | > 100 |  |  | > 100 | 67.4 | > 100 | > 100 | 
COc1ccc(-n2c(N)c(C#N)c(C#N)c2-c2ccccc2)cc1 | > 100 | > 100 | > 100 | > 100 | > 100 | > 100 | > 100 | > 100 | > 100 | > 100 |  | > 100 | > 100 | > 100 | > 100 | > 100 | > 100 | > 100 | > 100
COC(=O)CSC(=S)Nc1nnc(NC(=S)SCOC(C)=O)n1C(=S)SCC(=O)OC |  | > 100 | > 100 | > 100 |  | > 100 | > 100 | > 100 |  | > 100 | > 100 | > 100 |  | > 100 |  | > 100 | > 100 | > 100 | 
Cn1/c(=N\N=C(\CNCCO)[C@@H](O)[C@@H]2OC(c3ccccc3)OC[C@H]2O)sc2ccccc21 (some centres undefined) | 32.7 | 32.7 |  | 31.1 | 37.7 | 30.9 | 30.1 | 31.8 | 37 | 39 | 33.3 | 33.5 | 47 | 26.5 | 29.8 | 37.5 | 34.3 | 34.2 | 33.3
COC(=O)/C=C\C(C#N)(C#N)N=Cc1ccc(Br)s1 |  | 23.3 | 7.11 | > 85.5 | 33.4 | 6.02 | 7.18 | 38 | 19.1 | 28.6 | > 100 | 32.6 | > 30.6 | 8.86 | 4.51 | 46.9 | 12.9 | 6.1 | 33.2
Cc1ccc(-c2nc(-c3cnccn3)n(C3OC(CO)C(O)C(O)C3O)n2)cc1 (centres undefined) | > 100 | > 100 | > 100 |  |  | > 100 | > 100 | > 100 | > 100 | > 100 | > 100 | > 100 | > 100 | > 100 | > 100 | > 100 | > 100 | > 100 | 
CC(=O)OCC(OC(C)=O)C(OC(C)=O)C(OC(C)=O)C(C=NN(C(C)=O)S(=O)(=O)c1ccc(/C=C2\NC(=O)NC2=O)cc1)OC(C)=O (centres undefined) |  | > 100 | > 100 | > 100 | > 100 | > 100 | > 100 | > 100 | > 100 | > 100 | > 100 | > 100 | > 100 | > 100 | > 100 | > 100 | > 100 | > 100 | > 100
O=C(O)[C@@H]1NC[C@H]2C(Br)=NO[C@H]21 |  | > 100 | > 100 | > 100 | > 100 | > 100 | > 100 | > 100 | > 100 | > 100 |  | > 100 | > 100 | > 100 | > 100 | > 100 | > 100 | > 100 | > 100
COc1cccc(Cc2cc(=O)c3ccc(C)nc3[nH]2)c1 |  | > 100 | > 100 | > 100 | > 100 | > 100 | > 100 | > 100 | > 100 | > 100 | > 100 | > 100 | > 100 | > 100 | > 100 | > 100 | > 100 | > 100 | > 100
O[C@@H]1C[C@H]2N3CC[C@@]2(c2cc4c(cc2C3)OCO4)[C@H]2O[C@@H]12 | 0.041 | > 100 | > 100 | > 100 | > 100 | 0.0204 | > 100 | > 100 | > 100 | > 100 | > 100 | > 100 |  | > 100 | > 100 | > 100 | > 100 | > 100 | > 100
O=c1[nH]c(-n2[nH]c3c(c2=O)CCCC3)nc(O)c1-c1ccccc1 |  |  | > 100 | > 100 | > 100 | > 100 | > 100 | > 100 | > 100 | > 100 | > 100 | > 100 | > 100 | > 100 | > 100 | > 100 | > 100 |  | > 100
CC(C)(C)OC(=O)C1CC[C@@H](CC(=O)Oc2ccc([N+](=O)[O-])cc2)N1 (some centres undefined) | > 100 | > 100 | > 100 |  | > 100 | > 100 | > 100 | > 100 | > 100 | > 100 |  | > 100 |  | > 100 | > 100 | > 100 | > 100 | > 100 | > 100
COc1cc(/C=C2\C(=O)N(C(=O)c3ccc(NC(C)=O)cc3)N=C2C)ccc1O | > 100 | > 100 | > 100 |  |  | > 100 | > 100 |  | > 100 | > 100 | > 100 | > 100 |  | > 100 |  | > 100 | > 100 |  | 
O=c1[nH]c(=O)n(C2CC(O)C(CO)O2)cc1OCC1CCCCC1 (centres undefined) |  | > 100 |  | > 100 | > 100 | > 100 | > 100 | > 100 | > 100 | > 100 | > 100 | > 100 | > 100 | > 100 | > 100 | > 100 | > 100 | > 100 | 
C[Si](C)(OCCS(=O)(=O)O)OC(=C1S(=O)(=O)OCCOS1(=O)=O)c1cccc2ccccc12 | > 100 | > 100 | > 100 |  |  | > 100 | > 100 | > 100 | > 100 | > 100 | > 100 | > 100 |  | > 100 | > 100 | > 100 | > 100 | > 100 | > 100
O=S(=O)(c1ccccc1)C1(CCC2OCCO2)C=CC2(CC1)OCCO2 (centres undefined) |  | > 100 | > 100 |  | > 100 | > 100 | > 100 | > 100 | > 100 | > 100 | > 100 |  | > 100 | > 100 | > 100 | > 100 | > 100 | > 100 | 
CC(C)SC(NC(=O)C1C(C)(C)CCC1(C)C)C(=O)O (centres undefined) | > 100 |  | > 100 | > 100 | > 100 | > 100 | > 100 | > 100 | > 100 |  | > 100 |  |  | > 100 | > 100 | > 100 | > 100 | > 100 | > 100
CN(CC(=O)O)c1ncc2c(n1)-c1ccccc1OC2 | > 100 |  | > 100 | > 100 |  | > 100 | > 100 | > 100 | > 100 | > 100 | > 100 | > 100 |  | > 100 | > 100 | > 100 | > 100 | > 100 | > 100
Cc1cc(-c2nc3ccc(F)cc3s2)ccc1N | > 100 | > 100 | > 100 | > 100 |  | > 100 | > 100 | > 100 | > 100 | > 100 | > 100 | > 100 |  | > 100 | > 100 | > 100 | > 100 | > 100 | > 100
Cc1ccc(/C=C2\Cc3cccc(C)c3C2=O)c(C(=O)O)c1 | > 100 | > 100 | > 100 | > 100 |  |  | 31.4 | > 100 | > 100 | > 100 | > 100 | > 100 | > 100 | > 100 | > 100 | > 100 | > 100 |  | 
O=[N+]([O-])c1cc(Cl)cc2cc(Br)cnc12 | > 31.6 | > 31.6 | > 31.6 | 28.3 |  | > 31.6 | > 31.6 | > 31.6 | > 31.6 | > 31.6 | > 31.6 |  | > 31.6 | > 31.6 | > 31.6 | > 31.6 | > 31.6 | > 31.6 | > 100
Clc1ccc(-c2ccc(-c3nn4c(CNc5ccccc5)nnc4s3)o2)c(Cl)c1 | 76.4 | > 100 | > 100 | > 100 | > 100 | > 100 | > 100 | > 100 | > 100 | > 100 | > 100 | > 100 | > 100 | > 100 | > 100 | > 100 | > 100 |  | > 100
N#Cc1nc(C(CO)N(Cc2ccccc2)C(=O)O)oc1N (centres undefined) | > 100 | > 100 | > 100 |  | > 100 | > 100 | > 100 | > 100 | > 100 | > 100 | > 100 | > 100 | > 100 | > 100 | > 100 | > 100 | > 100 | > 100 | > 100
